Measurements: ChEMBL document CHEMBL4706535, “The development of Coronavirus 3C-Like protease (3CL) inhibitors from 2010 to 2020” (Eur J Med Chem, 2020)

Test system: SARS-CoV-2
Test: microbe, parasite or virus in culture
Conditions: Severe acute respiratory syndrome coronavirus 2, nCoV-2019 BetaCoV/Wuhan/WIV04/2019, Vero C1008

O=C[C@H](C[C@@H]1CCNC1=O)NC(=O)[C@H](Cc1cccc(F)c1)NC(=O)c1cc2ccccc2[nH]1
EC50: 720 nM
